The structures appear in SMILES notation.

For 14 molecules, IC50 results are on record in patent publication USRE48711E1, “Apoptosis signal-regulating kinase inhibitors” (Gilead Sciences, Inc., priority 2009, dated 2021).

For this test, the target named is ASK1 (Apoptosis Signal-Regulating Kinase 1) (Homo sapiens (Human), UniProt Q99683). The test can be described thus: ASK1 (Apoptosis Signal-Regulating Kinase 1) TR-FRET Kinase Assay (Biochemical IC50). The note with it: TR-FRET, biotin-MBP substrate, 20 min pre-incubation, ATP added as 300 μM solution. For orientation: Time-resolved FRET reads energy transfer from a long-lived donor to a nearby acceptor.
Sequence of ASK1 (Apoptosis Signal-Regulating Kinase 1) (Q99683 649-946): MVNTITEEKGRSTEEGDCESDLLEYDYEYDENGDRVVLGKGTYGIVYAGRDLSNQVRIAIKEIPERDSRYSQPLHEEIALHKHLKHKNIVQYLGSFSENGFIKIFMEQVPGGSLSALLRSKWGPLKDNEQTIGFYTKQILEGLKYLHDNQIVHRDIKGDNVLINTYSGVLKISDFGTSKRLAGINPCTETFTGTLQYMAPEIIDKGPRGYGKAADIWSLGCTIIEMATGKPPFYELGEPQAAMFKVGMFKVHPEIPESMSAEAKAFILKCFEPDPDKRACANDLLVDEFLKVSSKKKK
As to `Cc1ncccc1-c1ccnc(C(=O)Nc2cccc(-c3nncn3C3CC3)c2)c1` [Example 74, N-(3-(4-cyclopropyl-4H-1,2,4-triazol-3-yl)phenyl)-2-methyl-3,4′-bipyridine-2′-carboxamide], inhibition was half-maximal at 79 nM (IC50).

Consider `O=C(Nc1cccc(-c2nncn2C2CC2)c1)c1cc(-c2cnc3c(c2)CNCC3)ccn1` [Example 154, N-(3-(4-cyclopropyl-4H-1,2,4-triazol-3-yl)phenyl)-4-(5,6,7,8-tetrahydro-1,6-naphthyridin-3-yl)picolinamide], for which inhibition was half-maximal at 34 nM (IC50).

`O=C(Nc1cccc(-c2nncn2C2CC2)c1)c1cc(-c2ccc(N3CCNC3=O)cc2)ccn1` [Example 105, N-(3-(4-cyclopropyl-4H-1,2,4-triazol-3-yl)phenyl)-4-(4-(2-oxoimidazolidin-1-yl)phenyl)picolinamide]: the IC50 (as a rule, the midpoint of a concentration-inhibition curve) amounted to 15 nM.

In the case of `CC(O)c1nnc(-c2ccnc(C(=O)Nc3cccc(-c4nncn4C4CC4)c3)c2)o1` (centres unmarked) [Example 252, N-(3-(4-cyclopropyl-4H-1,2,4-triazol-3-yl)phenyl)-4-(5-(1-hydroxyethyl)-1,3,4-oxadiazol-2-yl)picolinamide], it took 3410 nM to reach half-maximal inhibition (IC50).

The molecule `O=C(Nc1cccc(-c2nncn2C2CC2)n1)c1cccc(-n2cc(C3CC3)nn2)c1` [Example 269, 3-(4-cyclopropyl-1H-1,2,3-triazol-1-yl)-N-(6-(4-cyclopropyl-4H-1,2,4-triazol-3-yl)pyridin-2-yl)benzamide] had an IC50 of 23 nM.

In turn, `COc1cncc(-c2ccnc(C(=O)Nc3cccc(-c4nncn4C)c3)c2)c1` [Example 11, 5-methoxy-N-(3-(4-methyl-4H-1,2,4-triazol-3-yl)phenyl)-3,4′-bipyridine-2′-carboxamide] registered an IC50 of 40 nM.

Molecule `O=C(Nc1cccc(-c2nncn2C2CC2)c1)c1cc(-n2ccnc2)ccn1` [Example 27, N-(3-(4-cyclopropyl-4H-1,2,4-triazol-3-yl)phenyl)-4-(1H-imidazol-1-yl)picolinamide] returned an IC50 of 11 nM.

`O=C(Nc1cccc(-c2nncn2C2CC2)c1)c1cc(-c2ccc(NC3CC3)nc2)ccn1` [Example 120, N-(3-(4-cyclopropyl-4H-1,2,4-triazol-3-yl)phenyl)-6-(cyclopropylamino)-3,4′-bipyridine-2′-carboxamide] yielded an IC50 of 6 nM.

For `O=C(Nc1cccc(-c2nncn2CC(F)(F)F)c1)c1cc(-c2cccnc2)ccn1` [Example 58, N-(3-(4-(2,2,2-trifluoroethyl)-4H-1,2,4-triazol-3-yl)phenyl)-3,4′-bipyridine-2′-carboxamide], inhibition was half-maximal at 290 nM (IC50).

Turning to `CCc1cc(-c2ccnc(C(=O)Nc3cccc(-c4nncn4C4CC4)c3)c2)cnc1CC` [Example 141, N-(3-(4-cyclopropyl-4H-1,2,4-triazol-3-yl)phenyl)-5,6-diethyl-3,4′-bipyridine-2′-carboxamide], the IC50 worked out at 13 nM.

The molecule `O=C(Nc1cccc(-c2nncn2C2CC2)c1)c1cc(-c2cnc3cc[nH]c3c2)ccn1` [Example 128, N-(3-(4-cyclopropyl-4H-1,2,4-triazol-3-yl)phenyl)-4-(1H-pyrrolo[3,2-b]pyridin-6-yl)picolinamide] registered an IC50 of 6 nM.

For the molecule `CS(=O)(=O)c1ccc(-c2ccnc(C(=O)Nc3cccc(-c4nncn4C4CC4)n3)c2)cc1` [Example 101, N-(6-(4-cyclopropyl-4H-1,2,4-triazol-3-yl)pyridin-2-yl)-4-(4-(methylsulfonyl)phenyl)picolinamide], the IC50 worked out at 7 nM.

In turn, `COc1ccc2ncc(-c3ccnc(C(=O)Nc4cccc(-c5nncn5C5CC5)c4)c3)cc2c1` [Example 251, N-(3-(4-cyclopropyl-4H-1,2,4-triazol-3-yl)phenyl)-4-(6-methoxyquinolin-3-yl)picolinamide] had an IC50 of 7 nM.

`O=C(Nc1ccnc(-c2nncn2C2CC2)c1)c1cc(-c2ccc(C3CC3)nc2)ccn1` [Example 152, 6-cyclopropyl-N-(2-(4-cyclopropyl-4H-1,2,4-triazol-3-yl)pyridin-4-yl)-3,4′-bipyridine-2′-carboxamide] showed an IC50 of 286 nM.
